Source: PMC4666608, “Metabolic Profiling of Chicken Embryos Exposed to Perfluorooctanoic Acid (PFOA) and Agonists to Peroxisome Proliferator-Activated Receptors” (PLoS ONE, 2015)
Marks after values point to notes of the source that are not given here.

Tested on: chicken embryos
Test: Metabolic profiling of allantoic fluid (GC-MS, LC-MS, OPLS-DA)
Assay type: in vivo, Gallus gallus domesticus
Details: 150 μg/egg
Procedure: Controls were injected with 20 μL vehicle only (DMSO).
Plasma was collected and stored at -70°C.
Metabolites in allantoic fluid and blood plasma were analyzed using gas chromatography-mass spectrometry (GC-MS) and liquid chromatography-mass spectrometry (LC-MS) as described in S1 Methods. Prior to GC-MS and LC-MS analysis, allantoic fluid (100 μL) and blood plasma (50 μL) were extracted. To each sample, 900 μL (allantoic fluid) or 450 μL (blood plasma) of extraction buffer (90/10 v/v methanol:water) including all internal standards were added. Standards for GC-MS were proline, succinic acid, glutamic acid, salicylic acid, alpha-ketoglutarate, putrescine, myristic acid, hexadecanoic acid, cholesterol, and sucrose. Standards for LC-MS were Val-Tyr-Val, Leu-enkephalin, sulfadimethoxine and reserpine. Samples were homogenized by shaking in a bead mill at a frequency of 30 Hz for 3 minutes and proteins were precipitated at +4°C on ice. The samples were centrifuged at +4°C, 14000 rpm, for 10 min. Then, 200 μL supernatant was transferred to a GC microvial and 200 μL was transferred to an LC microvial, and solvents were evaporated. Samples from the four replicate experiments were analyzed using in chronological order and within each replicate experiment the run order of the individual samples was randomized.
Multivariate statistical analyses of metabolite profiles were performed using the software package SIMCA-P version 13.0 (Umetrics, Umeå, Sweden). Data was centered and scaled to variance 1 (UV scaling) prior to modelling. To reduce unintended systematic variation caused by sample processing and instrument drift, GC-MS and LC-MS metabolite amounts (expressed as the area under the chromatographic peak) were normalized by Orthogonal Partial Least Squares analysis (O2PLS) prior to multivariate data analysis. O2PLS finds common (predictive) and unique (orthogonal) variation in two data matrices. If applied to find the common variation between the data matrix containing the measured metabolite concentrations and a matrix containing only the internal standards, the only common (predictive) variation expected is due to the unintended systematic variation. By deleting the contribution of the predictive latent variables, that variation can be removed from the data. Models obtained after this normalization contain in general less latent variables, and this simplification helps when deciding on the number of latent variables to be used. Following normalization, GC-MS and LC-MS data were analyzed together. Initially, a global Principal Component Analysis (PCA) was performed to get an overview of groups and trends and to identify outliers. Projections to latent structures by means of Orthogonal Partial Least Squares Discriminant Analysis (OPLS-DA) was used to model the relationship between the X-matrix (metabolite concentrations) and the Y matrix (class, i.e. exposure group or sex), and to find x-variables that were related to class belonging. OPLS-DA is a supervised prediction and regression method that rotates the projection plane to find the maximum covariance between the data and the class assignment. All groups were first analyzed together in a 5-class OPLS-DA and then each exposure group was analyzed against the control group in a 2-class OPLS-DA. Sex differences were analyzed both using the whole data set and in each group separately using 2-class OPLS-DA, with females and males as the two classes. Only variables with 80% or more nonzero values were included in the statistical models. […] The validity of each model was also checked using CV-ANOVA (ANOVA of the cross-validated residuals). A significance level of p < 0.05 was used. For each model, R ^2 X, R ^2 Y and Q ^2 values were calculated, where R ^2 X is a measure of the fraction of x variation modeled in the extracted latent variables, R ^2 Y is a measure of the fraction of y variation modeled and Q ^2 is an estimate of the predictive ability of the model and is calculated by cross-validation. […]

[1] = GC, tentative 2-Oxovaleric acid

CC(C)(Sc1ccc(CCN(CCCCC2CCCCC2)C(=O)NC2CCCCC2)cc1)C(=O)O [GW7647, reference compound]
Mean concentration relative to control, feature Win004_C08 (GC): 1.3***
Mean concentration relative to control, feature Win005_C07 (GC): 1.4***
Mean concentration relative to control, feature Win008_C06 (GC): 2.7***
Mean concentration relative to control, feature Win022_C01 (GC): 2.3***
Mean concentration relative to control, feature Win023_C06 (GC): 2.8***
Mean concentration relative to control, feature win006_C01 (GC): 2.4***
Mean concentration relative to control, feature Win008_C07 (GC, tentative 1-Aminocyclopropanecarboxylic acid): 1.4***
Mean concentration relative to control, feature Win023_C03 (GC, tentative 2-Oxoglutaric acid): 2.5***
Mean concentration relative to control, feature Win007_C09 [1]: 1.5***
Mean concentration relative to control, feature Win008_C05 [1]: 1.6***
Mean concentration relative to control, feature Win018_C04 (GC, tentative 3-Amino-2-piperidone): 1.4***
Mean concentration relative to control, feature Win007_C03 (GC, tentative 3-Hydroxybutanoic acid): 1.3***
Mean concentration relative to control, feature Win042_C02 (GC, tentative Cystathionine): 2.1***
Mean concentration relative to control, feature Win009_C03 (GC, tentative Ketoleucine): 1.5***
Mean concentration relative to control, feature Win008_C04 (GC, tentative Malonic acid): 1.3***
Mean concentration relative to control, feature Win005_C03 (GC, tentative Oxalic acid): 0.8*
Mean concentration relative to control, feature Win013_C05 (GC, tentative Succinic acid): 1.3***
Mean concentration relative to control, feature 134.0239@1.1350567 (LC): 1.6*
Mean concentration relative to control, feature 145.0538@3.072527 (LC): 1.8***
Mean concentration relative to control, feature 147.0328@3.0722888 (LC): 1.7***
Mean concentration relative to control, feature 160.0323@1.1950632 (LC): 1.1*
Mean concentration relative to control, feature 173.0488@3.0734746 (LC): 1.8***
Mean concentration relative to control, feature 176.0952@1.3890611 (LC): 0.6
Mean concentration relative to control, feature 178.0428@1.7582192 (LC): 1.1
Mean concentration relative to control, feature 180.0048@4.421465 (LC): 1.0
Mean concentration relative to control, feature 189.1159@1.9209185 (LC): 0.8*
Mean concentration relative to control, feature 197.0639@2.1181405 (LC): 1.2***
Mean concentration relative to control, feature 201.012@3.046474 (LC): 1.5***
Mean concentration relative to control, feature 202.0429@2.9548414 (LC): 1.1
Mean concentration relative to control, feature 205.0533@4.421879 (LC): 1.0
Mean concentration relative to control, feature 214.016@2.1190732 (LC): 1.3***
Mean concentration relative to control, feature 226.0107@4.421457 (LC): 1.0
Mean concentration relative to control, feature 236.0816@3.0720985 (LC): 1.7***
Mean concentration relative to control, feature 241.0551@2.3510706 (LC): 1.2*
Mean concentration relative to control, feature 243.1118@2.1537287 (LC): 1.0
Mean concentration relative to control, feature 244.9972@4.421603 (LC): 1.0
Mean concentration relative to control, feature 245.1563@2.2907295 (LC): 0.8*
Mean concentration relative to control, feature 250.0981@3.072492 (LC): 1.8***
Mean concentration relative to control, feature 262.0978@2.7961144 (LC): 2.6***
Mean concentration relative to control, feature 263.0855@2.2847009 (LC): 2.1***
Mean concentration relative to control, feature 270.0441@1.1407775 (LC): 0.9
Mean concentration relative to control, feature 278.0928@3.0723689 (LC): 1.8***
Mean concentration relative to control, feature 279.1248@2.796395 (LC): 3.2***
Mean concentration relative to control, feature 280.1425@2.730277 (LC): 1.0
Mean concentration relative to control, feature 288.1166@2.9551322 (LC): 1.2
Mean concentration relative to control, feature 289.1012@3.249983 (LC): 1.8***
Mean concentration relative to control, feature 289.173@7.5030584 (LC): 0.9
Mean concentration relative to control, feature 294.1242@2.3692534 (LC): 1.0
Mean concentration relative to control, feature 302.0508@3.0722616 (LC): 1.6***
Mean concentration relative to control, feature 305.1682@5.353517 (LC): 1.7***
Mean concentration relative to control, feature 305.1684@5.2955093 (LC): 1.6***
Mean concentration relative to control, feature 308.073@4.4211636 (LC): 1.0
Mean concentration relative to control, feature 310.1181@1.5090439 (LC): 1.1
Mean concentration relative to control, feature 316.0389@3.0725708 (LC): 1.5***
Mean concentration relative to control, feature 320.0626@3.0729218 (LC): 1.5***
Mean concentration relative to control, feature 325.1114@2.1190624 (LC): 1.5***
Mean concentration relative to control, feature 325.1115@2.3554378 (LC): 1.3*
Mean concentration relative to control, feature 333.1335@2.8639288 (LC): 0.9
Mean concentration relative to control, feature 333.2005@6.5291867 (LC): 1.3*
Mean concentration relative to control, feature 335.1866@4.508565 (LC): 0.4***
Mean concentration relative to control, feature 337.1651@1.8737898 (LC): 1.4***
Mean concentration relative to control, feature 344.1424@2.348947 (LC): 1.3
Mean concentration relative to control, feature 348.0553@3.0730357 (LC): 1.5***
Mean concentration relative to control, feature 349.1651@2.4087605 (LC): 0.6***
Mean concentration relative to control, feature 357.1997@6.9691257 (LC): 1.1
Mean concentration relative to control, feature 371.1513@3.0009465 (LC): 1.2
Mean concentration relative to control, feature 375.1819@3.672254 (LC): 0.6***
Mean concentration relative to control, feature 394.167@3.9552917 (LC): 0.5***
Mean concentration relative to control, feature 414.1482@2.118972 (LC): 1.5***
Mean concentration relative to control, feature 466.0837@2.1187525 (LC): 1.5***
Mean concentration relative to control, feature 488.0753@4.419585 (LC): 1.0
Mean concentration relative to control, feature 498.1003@2.1184251 (LC): 1.4***
Mean concentration relative to control, feature 507.1682@2.1238236 (LC): 1.4***
Mean concentration relative to control, feature 580.1426@3.0726147 (LC): 2.3***
Mean concentration relative to control, feature 582.1578@2.1747615 (LC): 1.7***
Mean concentration relative to control, feature 588.1751@2.1182237 (LC): 1.5***
Mean concentration relative to control, feature 594.1337@3.0724604 (LC): 2.3***
Mean concentration relative to control, feature 604.1486@2.1174603 (LC): 1.5***
Mean concentration relative to control, feature 623.183@2.1249466 (LC): 1.8***
Mean concentration relative to control, feature 668.2625@6.4379454 (LC): 1.03*
Mean concentration relative to control, feature 155.0353@0.6447272 (LC, suggested C3H10NO4P): 0.6
Mean concentration relative to control, feature 345.0497@1.1234403 (LC, suggested C10H12N5O7P): 1.3*
Mean concentration relative to control, feature 337.0259@4.4213357 (LC, suggested C13H11N3O4S2): 1.0
Mean concentration relative to control, feature 344.1427@2.1164653 (LC, suggested C13H20N4O7): 1.5***
Mean concentration relative to control, feature 331.184@6.373359 (LC, suggested C13H25N5O5): 1.3*
Mean concentration relative to control, feature 361.2026@5.6644735 (LC, suggested C16H31N3O4S): 0.5***
